Each compound was assayed against T1, KRAS G12C 1-169, his-tagged protein, GDP-loaded (Homo sapiens, UniProt P01116, G12C) (assay: Biochemical assay: covalent binding to KRAS G12C analyzed by mass spectrometry). Conditions: compounds 1-47, measured at 24 h.
T1 construct: KRAS G12C 1-169, his-tagged protein, GDP-loaded
Procedure: Compounds were tested for activity as follows:
Compounds were diluted to 50× final test concentration in DMSO in 96-well storage plates. […] Reactions were mixed carefully and thoroughly by pipetting up/down with a 200 μl multi-channel pipettor. […] 5 μl of 2% formic acid (Fisher cat#A117) in DI H2O was then added to each well followed by mixing with a pipette. The plate was then resealed with aluminum seal and stored on dry ice until analyzed as described below.
The above described assays were analyzed by mass spectrometry according to the following procedure:
The MS instrument is set to positive polarity, 2 GHz resolution, and low mass (1700) mode and allowed to equilibrate for 30 minutes. The instrument is then calibrated, switched to acquisition mode and the appropriate method loaded.
After another 30 minute equilibration time, a blank batch (i.e., buffer) is run to ensure equipment is operating properly. The samples are thawed at 37° C. for 10 minutes, briefly centrifuged, and transfer to the bench top. Wells A1 and H12 are spiked with 1 μL 500 μM internal standard peptide, and the plates centrifuged at 2000×g for 5 minutes. The method is then run and masses of each individual well recorded.
The masses (for which integration data is desired) for each well are pasted into the platemap and exported from the analysis. Masses for the internal standards are exported as well. The data at 50 ppm is extracted for the +19 charge state, and identity of well A1 is assigned using the internal standard spike and integrated. Peak data is exported as a TOF list and the above steps are repeated individually, for the +20, 21, 22, 23, 24, and 25 charge states.
`C=CC(=O)N1CCN(c2ncnc3cc(Cl)c(-c4ccccc4O)cc23)CC1` [Compound I-15, 1-(4-(7-chloro-6-(2-hydroxyphenyl)quinoazlin-4-yl)piperazin-1-yl)prop-2-en-1-one] was tested, and the Binding % was “+++ (+++indicates binding activity greater than 50% and up to 75%)”.

Same assay, conditions: compounds 48-246, measured at 2 h
`C=CC(=O)N1CCN(c2ncnc3c(F)c(-c4ccccc4C(F)(F)F)c(Cl)cc23)CC1CC#N` (centres unmarked) [Compound I-243, 2-(1-acryloyl-4-(6-chloro-8-fluoro-7-(2-(trifluoromethyl)phenyl)quinazolin-4-yl)piperazin-2-yl)acetonitrile] was tested, and the Binding % was “++++ (++++indicates binding activity greater than 75%)”.
With `C=CC(=O)N1CCN(c2ncnc3cc(-c4ccc(F)cc4)c(Cl)cc23)CC1` [Compound I-83, 1-(4-(6-chloro-7-(4-fluorophenyl)quinazolin-4-yl)piperazin-1-yl)prop-2-en-1-one] the Binding % was “++ (++indicates binding activity greater than 25% and up to 50%)”.
In the case of `C=CC(=O)N1CCN(c2ncnc3cc(-c4cc(C5CC5)ccc4F)c(Cl)cc23)CC1` [Compound I-147, 1-(4-(6-chloro-7-(5-cyclopropyl-2-fluorophenyl)quinazolin-4-yl)piperazin-1-yl)prop-2-en-1-one], the Binding % is reported as “++ (++indicates binding activity greater than 25% and up to 50%)”.
With `C=CC(=O)N1CCN(c2c(C#N)cnc3cc(-c4cc(O)ccc4Cl)c(Cl)cc23)CC1` [Compound I-184, 4-(4-acryloylpiperazin-1-yl)-6-chloro-7-(2-chloro-5-hydroxyphenyl)quinoline-3-carbonitrile] the Binding % was “++++ (++++indicates binding activity greater than 75%)”.
In the case of `C=CC(=O)N1CCN(c2ncnc3cc(-c4cccc5c4OCCO5)c(Cl)cc23)CC1` [Compound I-201, 1-(4-(6-chloro-7-(2,3-dihydrobenzo[d][1,4]dioxol-5-yl)quinazolin-4-yl)piperazin-1-yl)prop-2-en-1-one], the Binding % is reported as “+++ (+++indicates binding activity greater than 50% and up to 75%)”.
In the case of `C=CC(=O)N1CCN(c2ncnc3cc(Cl)c(-c4ccc(Cl)cc4)cc23)CC1CC(N)=O` (centres unmarked) [Compound I-69, 2-(1-acryloyl-4-(7-chloro-6-(4-chlorophenyl)quinazolin-4-yl)piperazin-2-yl)acetamide], the Binding % is reported as “+ (+indicates binding activity from 5% to 25%)”.
`C=CC(=O)N1CCN(c2ncnc3cc(-c4ccccc4CC#N)c(Cl)cc23)CC1` [Compound I-168, 2-(2-(4-(4-acryloylpiperazin-1-yl)-6-chloroquinazolin-7-yl)phenyl)acetonitrile] was tested, and the Binding % was “++ (++indicates binding activity greater than 25% and up to 50%)”.
`C=CC(=O)N1CCN(c2ncnc3cc(Cl)c(-c4ccc(Cl)cc4)cc23)C[C@@H]1C(N)=O` [Compound I-64, (R)-1-acryloyl-4-(7-chloro-6-(4-chlorophenyl)quinazolin-4-yl)piperazine-2-carboxamide] was tested, and the Binding % was “++ (++indicates binding activity greater than 25% and up to 50%)”.
With `C=CC(=O)N1CCN(c2c(C#N)cnc3cc(-c4ccc(F)cc4F)c(Cl)cc23)CC1` [Compound I-172, 4-(4-acryloylpiperazin-1-yl)-6-chloro-7-(2,4-difluorophenyl)quinolin-3-carbonitrile] the Binding % was “+++ (+++indicates binding activity greater than 50% and up to 75%)”.
In the case of `CC(C)/C=C(\C#N)C(=O)N1CCN(c2ncnc3cc(-c4ccccc4F)c(Cl)cc23)CC1` [Compound I-241, (E)-2-(4-(6-chloro-7-(2-fluorophenyl)quinazolin-4-yl)piperazine-1-carbonyl)-4-methylpent-2-enenitrile], the Binding % is reported as “+ (+indicates binding activity from 5% to 25%)”.
For `CN(C)C/C=C/C(=O)N1CCN(c2ncnc3cc(-c4ccccc4F)c(Cl)cc23)CC1` [Compound I-228, (E)0-1-(4-(6-chloro-7-(2-fluorophenyl)quinazolin-4-yl)piperazin-1-yl)-4-(dimethylamino)but-2-en-1-one], the Binding % was “+ (+indicates binding activity from 5% to 25%)”.
For `C=CC(=O)N1CCN(c2ncnc3cc(-c4cc(Cl)ccc4Cl)c(Cl)cc23)CC1` [Compound I-101, 1-(4-(6-chloro-7-(2,5-dichlorophenyl)quinazolin-4-yl)piperazin-1-yl)prop-2-en-1-one], the Binding % was “+++ (+++indicates binding activity greater than 50% and up to 75%)”.
For `C=CC(=O)N1CCN(c2ncnc3cc(-c4cccc5cnccc45)c(Cl)cc23)CC1` [Compound I-136, 1-(4-(6-chloro-7-(isoquinolin-5-yl)quinazolin-4-yl)piperazin-1-yl)prop-2-en-1-one], the Binding % was “++ (++indicates binding activity greater than 25% and up to 50%)”.

Same assay, conditions: compounds 247-342, measured at 30 min
`C=CC(=O)N1CCN(c2c(C#N)cnc3c(F)c(-c4c(C)ccc5[nH]ncc45)c(Cl)cc23)CC1` [Compound I-293, 4-(4-acryloylpiperazin-1-yl)-6-chloro-8-fluoro-7-(5-methyl-1H-indazol-4-yl)quinoline-3-carbonitrile] was tested, and the Binding % was “++++ (++++indicates binding activity greater than 75%)”.
In the case of `C=CC(=O)N1CCN(c2c(C#N)cnc3c(F)c(-c4ccccc4C(F)(F)F)c(Cl)cc23)CC1` [Compound I-285, 4-(4-acryloylpiperazin-1-yl)-6-chloro-8-fluoro-7-(2-(trifluoromethyl)phenyl) quinoline-3-carbonitrile], the Binding % is reported as “+++ (+++indicates binding activity greater than 50% and up to 75%)”.
In the case of `NC/C=C/C(=O)N1CCN(c2ncnc3c(F)c(-c4cc(O)cc5ccccc45)c(Cl)cc23)CC1` [Compound 335, (E)-4-amino-1-(4-(6-chloro-8-fluoro-7-(3-hydroxynaphthalen-1-yl)quinazolin-4-yl)piperazin-1-yl)but-2-en-1-one], the Binding % is reported as “++++ (++++indicates binding activity greater than 75%)”.
In the case of `Cc1ccc2[nH]ncc2c1-c1c(Cl)cc2c(N3CCN(C(=O)/C=C/CO)CC3)ncnc2c1F` [Compound 315, (E)-1-(4-(6-chloro-8-fluoro-7-(5-methyl-1H-indazol-4-yl)quinazolin-4-yl)piperazin-1-yl)-4-hydroxybut-2-en-1-one], the Binding % is reported as “+ (+indicates binding activity from 5% to 25%)”.

Same assay, conditions: compounds 247-342, measured at 30 min; listed as 256
`C=CC(=O)N1CCN(c2ncnc3c(F)c(-c4cc(O)cc5ccccc45)c(Cl)cc23)CC1` [Compound I-256, 1-(4-(6-chloro-8-fluoro-7-(3-hydroxynaphthalen-1-yl)quinazolin-4-yl)piperazin-1-yl)prop-2-en-1-one] was tested, and the Binding % was “+++ (+++indicates binding activity greater than 50% and up to 75%)”.

Same assay, conditions: determined at 2 hrs
With `C=CC(=O)N1CC(N2CCN(C(=O)[C@H](C)Nc3cc(CC)c(Cl)cc3O)CC2)C1` [II-69, (S)-1-(3-(4-(2-((4-Chloro-5-ethyl-2-hydroxyphenyl)amino)propanoyl)piperazin-1-yl)azetidin-1-yl)prop-2-en-1-one] the Binding % was “++ (++indicates binding activity greater than 20%)”.

Same assay, conditions: determined at 24 hrs
“1-(4-(2′,6-dichloro-4-methoxybiphenylcarbonyl)piperazin-1-yl)prop-2-en-1-one [III-1]” was tested, and the Binding % was “+ (+indicates binding activity from 5% to 10%)”.
In the case of `C=CC(=O)N1CC(N2CCN(C(=O)CNc3cc(O)c(Cl)cc3Cl)CC2)C1` [II-23, 1-(3-(4-(2-(2,4-dichloro-5-hydroxyphenyl-amino)acetyl)piperazin-1-yl)azetidin-1-yl)prop-2-en-1-one], the Binding % is reported as “+ (+indicates binding activity from 5% to 15%)”.
In the case of `C=CS(=O)(=O)N1CCC(N2CCN(C(=O)CNc3cc(Cl)c(Cl)cc3O)CC2)C1` (centres unmarked) [II-41, 2-(4,5-dichloro-2-hydroxyphenylamino)-1-(4-(1-(vinylsulfonyl)-pyrrolidin-3-yl)piperazin-1-yl)ethanone], the Binding % is reported as “++++ (++++indicates binding activity greater than 50%)”.

— patent publication US10111874B2, “Combination therapies for treatment of cancer” (Araxes Pharma LLC, priority 2014, dated 2018)
